Results: patent US20020137929A1, “1 - (3-heterocyclylphenyl) isothiourea, -isourea, -guanidine and -amidine herbicidal agents” (Intellectual Property Department, BASF Aktiengesellschaft, priority 1998, published 2002)

Legend:
ABUTH (Velvetleaf) = test: Postemergence herbicidal evaluation; format: in vivo, Abutilon theophrasti; conditions: postemergence
Summary of the method: (§1)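 Herbicidal effect was judged by eye on a 0–9 scale covering stand, vigor, deformity, size and chlorosis, compared with controls, four to five weeks after seedlings about two weeks old were sprayed (40 psi, ~0.0156–0.500 kg/ha).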

AMBEL (Ragweed, Common) = test: Postemergence herbicidal evaluation; format: in vivo, Ambrosia artemisifolia; conditions: postemergence
Summary of the method: as §1

[1] = test system: IPOHE (Morningglory, Ivyleaf); test: Postemergence herbicidal evaluation; format: in vivo, Ipomoea hederacea; conditions: postemergence
Summary of the method: as §1

ECHCG (Barnyardgrass) [2] = test: Postemergence herbicidal evaluation; format: in vivo, Echinochloa crus-galli; conditions: postemergence
Summary of the method: as §1

SETVI (Foxtail, Green) = test: Postemergence herbicidal evaluation; format: in vivo, Setaria viridis; conditions: postemergence
Summary of the method: as §1

[3] = test system: GLXMAW (Soybean, Williams); test: Postemergence herbicidal evaluation; format: in vivo, Glycine max, (L.) Merr. cv Williams; conditions: postemergence
Summary of the method: as §1

[4] = test system: TRZAWR (Wheat, Winter, cv Riband); test: Postemergence herbicidal evaluation; format: in vivo, Triticum aestivum; conditions: postemergence
Summary of the method: as §1

CASOB (Sicklepod) = test: Preemergence herbicidal evaluation; format: in vivo, Cassia obtusifolia; conditions: preemergence, rated 4-5 weeks after treatment, 0-9 scale
Summary of the method: (§2)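 Each species is sown separately in potting soil over roughly an inch of soil before any emergence. The soil surface then receives an aqueous acetone spray delivering about 0.0156 to 0.500 kg/ha of compound. After four to five weeks, injury is scored from 0 to 9 relative to a control.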

[5] = test system: CHEAL (Lambsquarters, Common); test: Preemergence herbicidal evaluation; format: in vivo, Chenopodium album; conditions: preemergence, rated 4-5 weeks after treatment, 0-9 scale
Summary of the method: as §2

GALAP (Galium) = test: Preemergence herbicidal evaluation; format: in vivo, Galium aparine; conditions: preemergence, rated 4-5 weeks after treatment, 0-9 scale
Summary of the method: as §2

[6] = test system: IPOHE (Morningglory, Ivyleaf); test: Preemergence herbicidal evaluation; format: in vivo, Ipomoea hederacea; conditions: preemergence, rated 4-5 weeks after treatment, 0-9 scale
Summary of the method: as §2

ECHCG (Barnyardgrass) [7] = test: Preemergence herbicidal evaluation; format: in vivo, Echinochloa crus-galli; conditions: preemergence, rated 4-5 weeks after treatment, 0-9 scale
Summary of the method: as §2

ZEAMX (Corn, Field) = test: Preemergence herbicidal evaluation; format: in vivo, Zea mays; conditions: preemergence, rated 4-5 weeks after treatment, 0-9 scale
Summary of the method: as §2

[8] = test system: ECHORC (Watergrass (Calif.)); test: Postemergence weed control under flooded paddy conditions; format: in vivo, Echinochloa oryzoides; conditions: postemergence weeds, rated 3 to 4 weeks after treatment
Summary of the method: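 Injury ratings (0–9 scale covering stand, vigor, malformation, size, chlorosis and overall appearance versus control) were made three to four weeks after treatment. Test material, about 0.0313 to 0.500 kg/ha a.i. in 50/50 v/v aqueous/acetone, was added to flood water 1.5 to 3 cm deep over 3 to 5 cm weeds and 1.5 to 2.5 leaf rice.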

SMILES: C=CCN1C(=O)C(CC(=O)NOC)SC1=Nc1cc(-n2c(=O)cc(C(F)(F)F)n(C)c2=O)c(F)cc1Cl (centres unmarked) [Compound 85]
- ABUTH herbicidal rating (ABUTH (Velvetleaf); rate 0.0156 kg/ha): 9.0
- ABUTH herbicidal rating (ABUTH (Velvetleaf); rate 0.0313 kg/ha): 9.0
- ABUTH herbicidal rating (ABUTH (Velvetleaf); rate 0.0625 kg/ha): 9.0
- ABUTH herbicidal rating (ABUTH (Velvetleaf); rate 0.1250 kg/ha): 9.0
- AMBEL herbicidal rating (AMBEL (Ragweed, Common); rate 0.0156 kg/ha): 9.0
- AMBEL herbicidal rating (AMBEL (Ragweed, Common); rate 0.0313 kg/ha): 9.0
- AMBEL herbicidal rating (AMBEL (Ragweed, Common); rate 0.0625 kg/ha): 9.0
- AMBEL herbicidal rating (AMBEL (Ragweed, Common); rate 0.1250 kg/ha): 9.0
- IPOHE herbicidal rating ([1]; rate 0.0156 kg/ha): 9.0
- IPOHE herbicidal rating ([1]; rate 0.0313 kg/ha): 9.0
- IPOHE herbicidal rating ([1]; rate 0.0625 kg/ha): 9.0
- IPOHE herbicidal rating ([1]; rate 0.1250 kg/ha): 9.0
- ECHCG herbicidal rating (ECHCG (Barnyardgrass) [2]; rate 0.0156 kg/ha): 0.0
- ECHCG herbicidal rating (ECHCG (Barnyardgrass) [2]; rate 0.0313 kg/ha): 0.0
- ECHCG herbicidal rating (ECHCG (Barnyardgrass) [2]; rate 0.0625 kg/ha): 0.0
- ECHCG herbicidal rating (ECHCG (Barnyardgrass) [2]; rate 0.1250 kg/ha): 9.0
- SETVI herbicidal rating (SETVI (Foxtail, Green); rate 0.0156 kg/ha): 0.0
- SETVI herbicidal rating (SETVI (Foxtail, Green); rate 0.0313 kg/ha): 0.0
- SETVI herbicidal rating (SETVI (Foxtail, Green); rate 0.0625 kg/ha): 9.0
- SETVI herbicidal rating (SETVI (Foxtail, Green); rate 0.1250 kg/ha): 9.0
- GLXMAW herbicidal rating ([3]; rate 0.0156 kg/ha): 4.5
- GLXMAW herbicidal rating ([3]; rate 0.0313 kg/ha): 6.0
- GLXMAW herbicidal rating ([3]; rate 0.0625 kg/ha): 6.0
- GLXMAW herbicidal rating ([3]; rate 0.1250 kg/ha): 7.5
- TRZAWR herbicidal rating ([4]; rate 0.0156 kg/ha): 3.0
- TRZAWR herbicidal rating ([4]; rate 0.0313 kg/ha): 3.5
- TRZAWR herbicidal rating ([4]; rate 0.0625 kg/ha): 4.5
- TRZAWR herbicidal rating ([4]; rate 0.1250 kg/ha): 5.0
- CASOB rating (CASOB (Sicklepod); 0.0156 kg/ha): 0.0
- CASOB rating (CASOB (Sicklepod); 0.0313 kg/ha): 0.0
- CASOB rating (CASOB (Sicklepod); 0.0625 kg/ha): 0.0
- CASOB rating (CASOB (Sicklepod); 0.1250 kg/ha): 0.0
- CASOB rating (CASOB (Sicklepod); 0.2500 kg/ha): 0.0
- CASOB rating (CASOB (Sicklepod); 0.5000 kg/ha): 9.0
- CHEAL rating ([5]; 0.0156 kg/ha): 3.0
- CHEAL rating ([5]; 0.0313 kg/ha): 9.0
- CHEAL rating ([5]; 0.0625 kg/ha): 9.0
- CHEAL rating ([5]; 0.1250 kg/ha): 9.0
- CHEAL rating ([5]; 0.2500 kg/ha): 9.0
- CHEAL rating ([5]; 0.5000 kg/ha): 9.0
- GALAP rating (GALAP (Galium); 0.0156 kg/ha): 0.0
- GALAP rating (GALAP (Galium); 0.0313 kg/ha): 0.0
- GALAP rating (GALAP (Galium); 0.0625 kg/ha): 0.0
- GALAP rating (GALAP (Galium); 0.1250 kg/ha): 4.0
- GALAP rating (GALAP (Galium); 0.2500 kg/ha): 6.0
- GALAP rating (GALAP (Galium); 0.5000 kg/ha): 9.0
- IPOHE rating ([6]; 0.0156 kg/ha): 0.0
- IPOHE rating ([6]; 0.0313 kg/ha): 0.0
- IPOHE rating ([6]; 0.0625 kg/ha): 2.0
- IPOHE rating ([6]; 0.1250 kg/ha): 5.0
- IPOHE rating ([6]; 0.2500 kg/ha): 7.0
- IPOHE rating ([6]; 0.5000 kg/ha): 9.0
- ECHCG rating (ECHCG (Barnyardgrass) [7]; 0.0156 kg/ha): 0.0
- ECHCG rating (ECHCG (Barnyardgrass) [7]; 0.0313 kg/ha): 0.0
- ECHCG rating (ECHCG (Barnyardgrass) [7]; 0.0625 kg/ha): 0.0
- ECHCG rating (ECHCG (Barnyardgrass) [7]; 0.1250 kg/ha): 0.0
- ECHCG rating (ECHCG (Barnyardgrass) [7]; 0.2500 kg/ha): 0.0
- ECHCG rating (ECHCG (Barnyardgrass) [7]; 0.5000 kg/ha): 4.0
- ZEAMX rating (ZEAMX (Corn, Field); 0.0156 kg/ha): 0.0
- ZEAMX rating (ZEAMX (Corn, Field); 0.0313 kg/ha): 0.0
- ZEAMX rating (ZEAMX (Corn, Field); 0.0625 kg/ha): 0.0
- ZEAMX rating (ZEAMX (Corn, Field); 0.1250 kg/ha): 2.0
- ZEAMX rating (ZEAMX (Corn, Field); 0.2500 kg/ha): 5.0
- ZEAMX rating (ZEAMX (Corn, Field); 0.5000 kg/ha): 9.0
- Herbicidal rating ECHORC ([8]; Rate 0.0313 kg/ha): 4.0
- Herbicidal rating ECHORC ([8]; Rate 0.0625 kg/ha): 5.0
- Herbicidal rating ECHORC ([8]; Rate 0.1250 kg/ha): 7.0
- Herbicidal rating ECHORC ([8]; Rate 0.2500 kg/ha): 9.0
